≈ marks a conversion by molar mass, not a printed value. Entries after “also recorded” stand apart in the source; their conditions may differ.
Legend:
[1] = tested on: caspase-9; test: Caspase 9 assay; format: cell-based, human; settings: for increase in level of active caspase-9 compared to control: HePG-2; for Casp9 OD: HepG2 cells treated with compound
[2] = tested on: HePG-2 cells; test: Annexin V-FITC/PI apoptosis and necrosis assay by flow cytometry; format: cell-based, human; settings: for increase of early apoptotic ratio compared to control cells / increase of late apoptotic % compared to control cells / necrosis compared to the control cell HePG-2: HePG-2; for apoptosis total, cell content % / apoptosis early, cell content % / necrosis, cell content % / apoptosis late, cell content %: HePG-2, compound at IC50; for apoptosis early, cell content %: lower right quadrant; for necrosis, cell content %: upper left quadrant; for apoptosis late, cell content %: upper right quadrant
[3] = tested on: HePG-2 cell line; test: MTT cytotoxicity assay, HePG-2; format: cell-based, human; settings: Homo sapiens, HepG2, 24 h, read-out: IC50 in μg/mL HePG-2, MTT, 24 h treatment
[4] = tested on: human lung fibroblast cell line WI38; test: MTT cell viability, normal lung fibroblast WI38; format: cell-based; settings: WI-38, read-out: IC50 in μg/mL WI38
[5] = tested on: MCF-7 cell line; test: MTT cytotoxicity assay, MCF-7; format: cell-based, human; settings: Homo sapiens, MCF7, 24 h, read-out: IC50 in μg/mL MCF-7, MTT, 24 h treatment
[6] = molecular target: recombinant human carbonic anhydrase XII (hCAXII) (Homo sapiens, UniProt O43570); test: hCAXII enzyme inhibition assay; format: biochemical
[7] = tested on: HePG-2 cells; test: Cell cycle analysis by DNA flow cytometry; format: cell-based, human; settings: for %G0–G1 (DNA content) / %G2/M (DNA content) / %S (DNA content): HePG-2, compound at IC50, 24 h
[8] = molecular target: human carbonic anhydrase IX (hCAIX) (Homo sapiens, UniProt Q16790); test: biochemical

recombinant human carbonic anhydrase XII (hCAXII), sequence (O43570 25-291): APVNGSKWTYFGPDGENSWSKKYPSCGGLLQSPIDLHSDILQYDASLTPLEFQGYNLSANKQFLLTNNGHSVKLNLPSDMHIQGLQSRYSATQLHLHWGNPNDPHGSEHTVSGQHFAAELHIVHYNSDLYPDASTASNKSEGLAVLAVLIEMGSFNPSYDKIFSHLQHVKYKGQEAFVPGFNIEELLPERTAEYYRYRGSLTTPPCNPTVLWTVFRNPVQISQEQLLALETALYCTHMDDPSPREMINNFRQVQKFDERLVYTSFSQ

## N#CC1CSc2[nH]c(=O)sc2C1c1cn(-c2ccccc2)nc1-c1ccc(Br)cc1 (stereo not drawn) [compound 7e, 7-(3-(4-Bromophenyl)-1-phenyl-1H-pyrazol-4-yl)-2-oxo-3,5,6,7-tetrahydro-2H-thiopyrano-[2,3-d]thiazole-6-carbonitrile]
[1]
  increase in level of active caspase-9 compared to control: ~4 fold
  Casp9 OD: 0.813
[2]
  increase of early apoptotic ratio compared to control cells: 21 fold
  increase of late apoptotic % compared to control cells: approximately 101 fold
  necrosis compared to the control cell HePG-2: ~3 fold
  apoptosis total, cell content %: 36.28%
  apoptosis early, cell content %: 11.91%
  necrosis, cell content %: 3.13%
  apoptosis late, cell content %: 21.24%
[3]
  IC50: 9.11 ± 3.2 µg/mL (≈ 18.4 µM)
[4]
  IC50: 27.1 ± 3.3 µg/mL (≈ 54.6 µM)
[5]
  IC50: 10.1 ± 2.1 µg/mL (≈ 20.4 µM)
[6]
  IC50: 202 ± 11 nM
[7]; HePG-2
  cell cycle comment (phase of arrest): arrested in phase S; also recorded: cell growth arrest@S
  increase of cell ratio in phase S compared to the control: 1.2 fold
[7]
  %G0–G1 (DNA content): 41.39%
  %G2/M (DNA content): 14.36%
  %S (DNA content): 44.25%
[8]
  IC50: 67 ± 3 nM

## CCOC(=O)C1CSc2[nH]c(=O)sc2C1c1cn(-c2ccccc2)nc1-c1ccc(Cl)cc1 (stereo not drawn) [compound 7i, Ethyl 7-(3-(4-Chlorophenyl)-1-phenyl-1H-pyrazol-4-yl)-2-oxo-3,5,6,7-tetra-hydro-2H-thiopyrano[2,3-d]thiazole-6-carboxylate]
[1]
  increase in level of active caspase-9 compared to control: 3 fold
  Casp9 OD: 0.609
[1]; after normalization to β-actin
  caspase-9 protein level vs untreated cells, Image J analysis: 2.98 fold
[2]
  increase of early apoptotic ratio compared to control cells: 52 fold
  increase of late apoptotic % compared to control cells: ~45 fold
  necrosis compared to the control cell HePG-2: ~3 fold
  apoptosis total, cell content %: 41.13%
  apoptosis early, cell content %: 28.71%
  necrosis, cell content %: 2.91%
  apoptosis late, cell content %: 9.51%
[3]
  IC50: 7.83 ± 2.1 µg/mL (≈ 15.7 µM)
[4]
  IC50: 19.5 ± 1.6 µg/mL (≈ 39.1 µM)
[5]
  IC50: 10.1 ± 1.5 µg/mL (≈ 20.2 µM)
[6]
  IC50: 123 ± 7 nM
[7]; HePG-2
  cell cycle comment (phase of arrest): arrested in phase G2/M; also recorded: cell growth arrest@G2/M
  increase of cell ratio in phase G2/M compared to the control: 1.6 fold
[7]
  %G0–G1 (DNA content): 39.56%
  %G2/M (DNA content): 27.93%
  %S (DNA content): 32.51%
[8]
  IC50: 287 ± 14 nM
